The source of these data is publication PMC6766931, “Design, Synthesis, and Activity Evaluation of Novel N-benzyl Deoxynojirimycin Derivatives for Use as α-Glucosidase Inhibitors” (Molecules, 2019).

Broadly, the IC50 is the concentration needed to halve the response being measured. For orientation: Ki means a measure of affinity in units of concentration, obtained from inhibition or displacement. A higher Ki goes with lower affinity.

T1 sequence (P53341 whole entry): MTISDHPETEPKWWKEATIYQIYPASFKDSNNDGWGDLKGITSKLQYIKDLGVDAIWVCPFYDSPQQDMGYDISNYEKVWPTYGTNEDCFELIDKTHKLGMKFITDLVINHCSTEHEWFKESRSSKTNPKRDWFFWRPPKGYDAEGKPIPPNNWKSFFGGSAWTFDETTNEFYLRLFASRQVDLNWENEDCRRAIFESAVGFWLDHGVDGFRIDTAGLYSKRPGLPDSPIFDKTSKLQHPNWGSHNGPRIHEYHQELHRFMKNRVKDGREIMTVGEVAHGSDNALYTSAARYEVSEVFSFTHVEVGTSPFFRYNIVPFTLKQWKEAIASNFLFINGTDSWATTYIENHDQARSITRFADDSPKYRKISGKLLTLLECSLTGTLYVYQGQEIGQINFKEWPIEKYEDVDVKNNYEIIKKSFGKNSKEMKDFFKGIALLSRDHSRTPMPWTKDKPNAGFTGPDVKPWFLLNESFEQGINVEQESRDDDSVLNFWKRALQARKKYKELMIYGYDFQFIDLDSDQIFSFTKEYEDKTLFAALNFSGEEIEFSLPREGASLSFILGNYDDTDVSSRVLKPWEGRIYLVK

System in the first data set: not given
Assay: not given
Details: method as in PMID 1475231. The settings on record: rats, intravenous administration, biphasic reduction in plasma; cited from earlier work.
Regarding `CN1C[C@H](O)[C@@H](O)[C@H](O)[C@H]1CO` [N-methyl-DNJ], the “initial t1/2 in plasma” value is 4.5 min and the “terminal t1/2 in plasma” value is 32 min.

Still in this data set, the particulars now being: rats, intravenous, at 120 min after administration; cited from earlier work.
In the case of `CN1C[C@H](O)[C@@H](O)[C@H](O)[C@H]1CO` [N-methyl-DNJ], the “dose recovered from the urine unchanged” value was 80%.

Another data set concerns the target T1, α-glucosidase (Saccharomyces cerevisiae, UniProt P53341).
T1 construct: purchased Sigma-Aldrich
The data set can be described thus: In vitro assay of α-glucosidase inhibitory activity (PNPG, 96-well microplates). In kind it is biochemical. The settings on record: substrate PNPG, pH 6.8, 37 °C, read-out: IC50 (mM) ± SEM.
In the case of `OCC1C(O)C(O)C(O)CN1Cc1ccc(F)cc1` (stereo not shown) [Compound 12a, 1-(4-fluorobenzyl)-2-(hydroxymethyl) piperidine-3,4,5-triol], the IC50 is 9.8 ± 0.31 mM. The same measure, in the same setting: as for `OCC1C(O)C(O)C(O)CN1Cc1ccc(Cl)cc1` (stereo not shown) [Compound 12b, 1-(4-chlorobenzyl)-2-(hydroxymethyl) piperidine-3,4,5-triol], the figure is 11.22 ± 0.02 mM; as for `OCC1C(O)C(O)C(O)CN1Cc1ccc(Br)cc1` (stereo not shown) [Compound 12c, 1-(4-bromobenzyl)-2-(hydroxymethyl) Piperidine-3,4,5-triol], 12.55 ± 0.03 mM; as for `OCC1C(O)C(O)C(O)CN1Cc1ccc(I)cc1` (stereo not shown) [Compound 12d, 2-(hydroxymethyl)-1-(4-iodobenzyl) Piperidine-3,4,5-triol], 9.88 ± 0.05 mM. For the compound `Cc1ccc(CN2CC(O)C(O)C(O)C2CO)cc1` (stereo not shown) [Compound 12e, 2-(hydroxymethyl)-1-(4-methylbenzyl) Piperidine-3,4,5-triol], the IC50 amounted to 8.65 ± 0.08 mM. The same measure, in the same setting: as for `COc1ccc(CN2CC(O)C(O)C(O)C2CO)cc1` (stereo not shown) [Compound 12f, 2-(hydroxymethyl)-1-(4-methoxybenzyl) Piperidine-3,4,5-triol], the figure is 1.02 ± 0.23 mM.

With `OCC1C(O)C(O)C(O)CN1Cc1cccc(F)c1` (stereo not shown) [Compound 12g, 1-(3-fluorobenzyl)-2-(hydroxymethyl) Piperidine-3,4,5-triol], the IC50 stood at 10.23 ± 0.02 mM. On to `OCC1C(O)C(O)C(O)CN1Cc1cccc(Cl)c1` (stereo not shown) [Compound 12h, 1-(3-chlorobenzyl)-2-(hydroxymethyl) Piperidine-3,4,5-triol], for which the IC50 worked out at 15.32 ± 0.04 mM. Same read-out and setting: as for `OCC1C(O)C(O)C(O)CN1Cc1cccc(Br)c1` (stereo not shown) [Compound 12i, 1-(3-bromobenzyl)-2-(hydroxymethyl) Piperidine-3,4,5-triol], the figure is 15.66 ± 0.04 mM.

Take `OCC1C(O)C(O)C(O)CN1Cc1cccc(I)c1` (stereo not shown) [Compound 12j, 2-(hydroxymethyl)-1-(3-iodobenzyl) Piperidine-3,4,5-triol]: the IC50 came out at 10.54 ± 0.04 mM.

In the case of `Cc1cccc(CN2CC(O)C(O)C(O)C2CO)c1` (stereo not shown) [Compound 12k, 2-(hydroxymethyl)-1-(3-methylbenzyl) Piperidine-3,4,5-triol], the IC50 was 10.3 ± 0.21 mM. Take `COc1cccc(CN2CC(O)C(O)C(O)C2CO)c1` (stereo not shown) [Compound 12l, 2-(hydroxymethyl)-1-(3-methoxybenzyl) Piperidine-3,4,5-triol]: the IC50 stood at 1.25 ± 0.34 mM. Consider `COc1cc(CN2C[C@H](O)[C@@H](O)[C@H](O)[C@H]2CO)cc(Br)c1OCc1ccccc1` [Compound 17b], for which the IC50 came to 15.68 ± 0.06 mM.

As for `COc1cc(CN2CC(O)C(O)C(O)C2CO)cc(Br)c1OC` (stereo not shown) [Compound 17c, 1-(3-bromo-4,5-dimethoxybenzyl)-2-(hydroxymethyl) Piperidine-3,4,5-triol], the IC50 worked out at 1.06 ± 0.11 mM. On to `COc1cc(CN2CC(O)C(O)C(O)C2CO)c(Br)c(Br)c1OC` (stereo not shown) [Compound 17d, 1-(2,3-dibromo-4,5-dimethoxybenzyl)-2-(hydroxymethyl) Piperidine-3,4,5-triol], for which the IC50 was 1.14 ± 0.09 mM. The same measure, in the same setting: with `COc1c(Br)c(Br)c(CN2C[C@H](O)[C@@H](O)[C@H](O)[C@H]2CO)c(Br)c1OC` [Compound 17e, 2-(hydroxymethyl)-1-(2,3,6-tribromo-4,5-dimethoxybenzyl)-2-piperidine-3,4,5-triol] the figure was 9.57 ± 0.08 mM. Regarding `COc1cc(CN2CC(O)C(O)C(O)C2CO)ccc1O` (stereo not shown) [Compound 18a, 1-(4-hydroxy-3-methoxybenzyl)-2-(hydroxymethyl) piperidine-3,4,5-triol], the IC50 was 0.207 ± 0.11 mM. On the same count and under the same terms, with `COc1cc(CN2CC(O)C(O)C(O)C2CO)cc(Br)c1O` (stereo not shown) [Compound 18b, 1-(3-bromo-4-hydroxy-5-methoxybenzyl)-2-(hydroxymethyl) piperidine-3,4,5-triol] the figure was 0.276 ± 0.13 mM.

In the next data set the target is T1, α-glucosidase. The experiment in a line: Enzyme kinetics study (Michaelis-Menten, non-linear regression). In kind it is biochemical. The settings on record: inhibitor concentration 0.25 mM, substrate PNPG 0.1-5 mM. The protocol:
In the enzyme kinetics studies, the enzyme activity was measured at different times using different concentrations of the substrate p-nitrophenyl α-D-glucopyranoside (0.1, 0.2, 0.8, 1.0, 1.2, 1.6, 1.8, 2.0, 2.5, 5 mM). The kinetics of the enzymatic reaction were fit to the Michaelis‒Menten equation. The Michaelis‒Menten equation is as follows:V = Vmax[S]/(Km + [S]).
In this equation, [S] is the concentration of the substrate, Vmax is the maximum reaction velocity of the enzymatic reaction, and Km is the Michaelis constant. […] Non-linear fitting was performed with the help of Origin 8.5, which can calculate the Vmax and Km values. The Ki constant was determined as follows:Ki = [I]/(K’m/Km − 1).
In this formula, [I] is the concentration of inhibitor, K’m is the Michaelis constant of the experimental group, and Km is the Michaelis constant of the blank group.
The same protocol was followed for the experiments reported in Figure 1 except that the inhibitor concentration was 0.25 mM and the substrate concentration was varied as indicated (0.1, 0.2, 0.8, 1.0, 1.2, 1.6, 1.8, 2.0, 2.5, 5 mM). The Km and Vmax values were calculated using […], and then, the Ki value was calculated using the formula that was mentioned in Section 2.3.
With `C[C@H]1O[C@H](O[C@H]2[C@H](O)[C@@H](O)[C@@H](O[C@H]3[C@H](O)[C@@H](O)C(O)O[C@@H]3CO)O[C@@H]2CO)[C@H](O)[C@@H](O)[C@@H]1N[C@H]1C=C(CO)[C@@H](O)[C@H](O)[C@H]1O` (stereo partly shown) [Acarbose, reference compound], the Vmax was 4.40 ± 0.42 *10^−6 mmol/min. Same read-out and setting: with `COc1cc(CN2CC(O)C(O)C(O)C2CO)ccc1O` (stereo not shown) [Compound 18a, 1-(4-hydroxy-3-methoxybenzyl)-2-(hydroxymethyl) piperidine-3,4,5-triol] the figure was 3.56 ± 0.28 *10^−6 mmol/min.

The same data set, now with this note: inhibitor concentration 0.25 mM; Ki = [I]/(K'm/Km − 1).
Compound `COc1cc(CN2CC(O)C(O)C(O)C2CO)ccc1O` (stereo not shown) [Compound 18a, 1-(4-hydroxy-3-methoxybenzyl)-2-(hydroxymethyl) piperidine-3,4,5-triol] had a Ki of 0.11 ± 0.3 mM.

System in another data set: not given
Assay: not given
The arrangement: method as in earlier work. The settings on record: quickly metabolized and excreted; cited from earlier work.
Regarding `OC[C@H]1NC[C@H](O)[C@@H](O)[C@@H]1O` [Compound 1-DNJ, 1-deoxynojirimycin], the “hypoglycaemic effect in vivo” value is reported as “no significant hypoglycaemic effect”.
